# Where a SMILES comes first, the peptide text is derived from it.
# Assays:
# E. coli NCTC 9001 [1] = assay type: cell-based; settings: NCTC 9001, 72 h
# Description: Whole lymph or purified components, resuspended in PBS to a final volume equal to the starting material (heated lymph), was applied in 3 mm wells on agar plates seeded with the test organisms. Antibacterial activity was determined by measuring the growth-inhibition zones (in mm).
# Test conditions: agar inhibition zone obtained with 10 namomole apidaecin, resuspended in 20 μl H2 O/well.
# E. coli NCTC 9001 [2] = experiment: Bactericidal activity, method not stated; assay type: cell-based; settings: lyophilized apidaecins resuspended in PBS
# [3] = tested on: Citrobacter freundii ATCC 8090; experiment: Minimal inhibitory concentration in liquid culture; assay type: cell-based; settings: 200 μl rich medium, 10^4 log-phase bacteria
# Salmonella Newport CD 94 = experiment: Minimal inhibitory concentration in liquid culture; assay type: cell-based; settings: 200 μl rich medium, 10^4 log-phase bacteria
# [4] = tested on: Pseudomonas solanacearum ATCC 11696; assay type: cell-based; settings: 200 μl rich medium, 10^4 log-phase bacteria
# [5] = tested on: Salmonella typhimurium ATCC 23565; experiment: Minimal inhibitory concentration in liquid culture; assay type: cell-based; settings: 200 μl rich medium, 10^4 log-phase bacteria
# [6] = tested on: Pseudomonas syringae pv. tabaci NCPPB 1237; experiment: Minimal inhibitory concentration in liquid culture; assay type: cell-based; settings: 200 μl rich medium, 10^4 log-phase bacteria
# [7] = tested on: Erwinia carotovora var carotovora NCPPB 312; experiment: Minimal inhibitory concentration in liquid culture; assay type: cell-based; settings: 200 μl rich medium, 10^4 log-phase bacteria
# [8] = tested on: Bacillus megaterium QB 1551; experiment: Minimal inhibitory concentration in liquid culture; assay type: cell-based; settings: 200 μl rich medium, 10^4 log-phase bacteria, + = no inhibition at maximal value
# [9] = tested on: Escherichia coli NCTC 9001; experiment: Minimal inhibitory concentration in liquid culture; assay type: cell-based; settings: 200 μl rich medium, 10^4 log-phase bacteria
# [10] = tested on: Erwinia carotovora var atroseptica LMG 2385; experiment: Minimal inhibitory concentration in liquid culture; assay type: cell-based; settings: 200 μl rich medium, 10^4 log-phase bacteria
# [11] = tested on: Rhizobium meliloti ZB 314; experiment: Minimal inhibitory concentration in liquid culture; assay type: cell-based; settings: 200 μl rich medium, 10^4 log-phase bacteria
# [12] = tested on: Agrobactierium tumefaciens DSM 3129; experiment: Minimal inhibitory concentration in liquid culture; assay type: cell-based; settings: 200 μl rich medium, 10^4 log-phase bacteria
# Shigella flexneri CP 87 = experiment: Minimal inhibitory concentration in liquid culture; assay type: cell-based; settings: 200 μl rich medium, 10^4 log-phase bacteria
# Description: (§1) In addition the exact concentration was determined precisely by amino-acid analysis and an equal sample of natural Bee 6b was prepared, allowing to compare the bactericidal activity of both natural and synthetic apidaecins by means of growth inhibition assays in liquid cultures (see mat & Meth.). The minimal inhibitory concentrations (μg/ml) were determined in liquid culture : 200 μl of a rich medium (trypticase soy broth or nutrient broth) was inoculated with 10^4 log-phase bacteria. Peptide concentrations ranged between 0 and 200 μg/ml. The values express μg/ml; when no inhibition was noticed the maximal values are given (+200 μg/ml or +50 μg/ml). All peptides were chemically synthesized, except for bee 6b which is purified from bee lymph.
# [13] = tested on: Xanthomonas campestris pv. vesicatoria LMG 905; experiment: Minimal inhibitory concentration in liquid culture; assay type: cell-based; settings: 200 μl rich medium, 10^4 log-phase bacteria, + = no inhibition at maximal value
# Description: as §1
# [14] = tested on: Corynebacterium insidiosum NCPPB 1109; experiment: Minimal inhibitory concentration in liquid culture; assay type: cell-based; settings: 200 μl rich medium, 10^4 log-phase bacteria
# Description: as §1
# [15] = tested on: Corynebacterium michiganense pv. michiganense NCPPB 1573; experiment: Minimal inhibitory concentration in liquid culture; assay type: cell-based; settings: 200 μl rich medium, 10^4 log-phase bacteria, + = no inhibition at maximal value
# Description: as §1
# [16] = tested on: Pseudomonas syringae pv. maculicola NCPPB 1776; experiment: Minimal inhibitory concentration in liquid culture; assay type: cell-based; settings: 200 μl rich medium, 10^4 log-phase bacteria
# [17] = tested on: Erwinia salicis NCPPB 2530; experiment: Minimal inhibitory concentration in liquid culture; assay type: cell-based; settings: 200 μl rich medium, 10^4 log-phase bacteria
# [18] = tested on: Xanthomonas campestris pv. campestris A 902; experiment: Minimal inhibitory concentration in liquid culture; assay type: cell-based; settings: 200 μl rich medium, 10^4 log-phase bacteria, + = no inhibition at maximal value
# [19] = tested on: Pseudomonas syringae pv. tomato NCPPB 1106; experiment: Minimal inhibitory concentration in liquid culture; assay type: cell-based; settings: 200 μl rich medium, 10^4 log-phase bacteria
smiles,measurement,setting,value
"CC[C@H](C)[C@H](NC(=O)[C@@H](N)Cc1ccc(O)cc1)C(=O)N1CCC[C@H]1C(=O)N[C@@H](CCC(N)=O)C(=O)N1CCC[C@H]1C(=O)N[C@@H](CCCNC(=N)N)C(=O)N1CCC[C@H]1C(=O)N1CCC[C@H]1C(=O)N[C@@H](Cc1c[nH]cn1)C(=O)N1CCC[C@H]1C(=O)N[C@@H](CCCNC(=N)N)C(=O)N[C@@H](CC(C)C)C(=O)O [Apid IB6, Y-I-P-Q-P-R-P-P-H-P-R-L] (H-YIPQPRPPHPRL-OH)",agar inhibition zone,E. coli NCTC 9001 [1],9 mm
"CC[C@H](C)[C@H](NC(=O)[C@H](Cc1ccc(O)cc1)NC(=O)[C@@H](NC(=O)[C@@H]1CCCN1C(=O)[C@H](CCCNC(=N)N)NC(=O)[C@@H](N)CC(N)=O)C(C)C)C(=O)N1CCC[C@H]1C(=O)N[C@@H](CCC(N)=O)C(=O)N1CCC[C@H]1C(=O)N[C@@H](CCCNC(=N)N)C(=O)N1CCC[C@H]1C(=O)N1CCC[C@H]1C(=O)N[C@@H](Cc1c[nH]cn1)C(=O)N1CCC[C@H]1C(=O)N[C@@H](CCCNC(=N)N)C(=O)N[C@@H](CC(C)C)C(=O)O [Apid Ib2, N-R-P-V-Y-I-P-Q-P-R-P-P-H-P-R-L] (H-NRPVYIPQPRPPHPRL-OH)",agar inhibition zone,E. coli NCTC 9001 [1],16 mm
"CC[C@H](C)[C@H](NC(=O)[C@H](Cc1ccc(O)cc1)NC(=O)[C@@H](NC(=O)[C@@H]1CCCN1)C(C)C)C(=O)N1CCC[C@H]1C(=O)N[C@@H](CCC(N)=O)C(=O)N1CCC[C@H]1C(=O)N[C@@H](CCCNC(=N)N)C(=O)N1CCC[C@H]1C(=O)N1CCC[C@H]1C(=O)N[C@@H](Cc1c[nH]cn1)C(=O)N1CCC[C@H]1C(=O)N[C@@H](CCCNC(=N)N)C(=O)N[C@@H](CC(C)C)C(=O)O [Apid Ib4, P-V-Y-I-P-Q-P-R-P-P-H-P-R-L] (H-PVYIPQPRPPHPRL-OH)",agar inhibition zone,E. coli NCTC 9001 [1],14 mm
CC[C@H](C)[C@H](NC(=O)[C@H](Cc1ccc(O)cc1)NC(=O)[C@@H](NC(=O)[C@@H]1CCCN1C(=O)[C@H](CCCNC(=N)N)NC(=O)[C@H](CC(N)=O)NC(=O)[C@H](CC(N)=O)NC(=O)CN)C(C)C)C(=O)N1CCC[C@H]1C(=O)N[C@@H](CCC(N)=O)C(=O)N1CCC[C@H]1C(=O)N[C@@H](CCCNC(=N)N)C(=O)N1CCC[C@H]1C(=O)N1CCC[C@H]1C(=O)N[C@@H](Cc1c[nH]cn1)C(=O)N1CCC[C@H]1C(=O)N[C@@H](CCCNC(=N)N)C(=O)N[C@@H](CC(C)C)C(=O)O [Apid Ib] (H-GNNRPVYIPQPRPPHPRL-OH),bactericidal activity,E. coli NCTC 9001 [2],possessed a bactericidal activity
same,agar inhibition zone,E. coli NCTC 9001 [1],18 mm
CC[C@H](C)[C@H](NC(=O)[C@H](CCCNC(=N)N)NC(=O)[C@@H]1CCCN1C(=O)[C@H](Cc1c[nH]cn1)NC(=O)[C@@H]1CCCN1C(=O)[C@@H]1CCCN1C(=O)[C@H](CCCNC(=N)N)NC(=O)[C@@H]1CCCN1C(=O)[C@H](CCC(N)=O)NC(=O)[C@@H]1CCCN1C(=O)[C@@H](NC(=O)[C@H](Cc1ccc(O)cc1)NC(=O)[C@@H](NC(=O)[C@@H]1CCCN1C(=O)[C@H](CCCNC(=N)N)NC(=O)[C@H](CC(N)=O)NC(=O)[C@H](CC(N)=O)NC(=O)[C@H](CC(N)=O)NC(=O)CN)C(C)C)[C@@H](C)CC)C(=O)O [Apid NT+1] (H-GNNNRPVYIPQPRPPHPRI-OH),minimal inhibitory concentration,[3],0.2 µg/mL
same,minimal inhibitory concentration,Salmonella Newport CD 94,1 µg/mL
same,minimal inhibitory concentration,[4],25 µg/mL
same,minimal inhibitory concentration,[5],0.1 µg/mL
same,bactericidal activity,E. coli NCTC 9001 [2],possessed a bactericidal activity
same,minimal inhibitory concentration,[6],2.5 µg/mL
same,minimal inhibitory concentration,[7],2.5 µg/mL
same,minimal inhibitory concentration,[8],100 µg/mL
same,minimal inhibitory concentration,[9],0.2 µg/mL
same,minimal inhibitory concentration,[10],1 µg/mL
same,minimal inhibitory concentration,[11],0.1 µg/mL
same,minimal inhibitory concentration,[12],0.2 µg/mL
same,minimal inhibitory concentration,Shigella flexneri CP 87,0.1 µg/mL
same,minimal inhibitory concentration,[13],> 50 µg/mL
same,minimal inhibitory concentration,[14],100 µg/mL
same,minimal inhibitory concentration,[15],> 50 µg/mL
same,minimal inhibitory concentration,[16],2.5 µg/mL
same,minimal inhibitory concentration,[17],0.02 µg/mL
same,minimal inhibitory concentration,[18],> 50 µg/mL
same,minimal inhibitory concentration,[19],1 µg/mL
CC[C@H](C)[C@H](NC(=O)[C@H](Cc1ccc(O)cc1)NC(=O)[C@@H](NC(=O)[C@@H]1CCCN1C(=O)[C@H](CCCNC(=N)N)NC(=O)[C@H](CC(N)=O)NC(=O)[C@H](CC(N)=O)NC(=O)CN)C(C)C)C(=O)N[C@@H](CCC(N)=O)C(=O)N1CCC[C@H]1C(=O)N[C@@H](CCCNC(=N)N)C(=O)N1CCC[C@H]1C(=O)N1CCC[C@H]1C(=O)N[C@@H](Cc1c[nH]cn1)C(=O)N1CCC[C@H]1C(=O)N[C@@H](CCCNC(=N)N)C(=O)N[C@@H](CC(C)C)C(=O)O [Apid PT-1] (H-GNNRPVYIQPRPPHPRL-OH),minimal inhibitory concentration,[3],5 µg/mL
same,minimal inhibitory concentration,Salmonella Newport CD 94,5 µg/mL
same,minimal inhibitory concentration,[5],5 µg/mL
same,bactericidal activity,E. coli NCTC 9001 [2],possessed a bactericidal activity
same,minimal inhibitory concentration,[8],150 µg/mL
same,minimal inhibitory concentration,[9],5 µg/mL
same,minimal inhibitory concentration,[11],0.02 µg/mL
same,minimal inhibitory concentration,[12],0.5 µg/mL
same,minimal inhibitory concentration,Shigella flexneri CP 87,0.5 µg/mL
same,minimal inhibitory concentration,[17],0.05 µg/mL
same,minimal inhibitory concentration,[19],0.1 µg/mL
CC[C@H](C)[C@H](NC(=O)[C@H](Cc1ccc(O)cc1)NC(=O)[C@@H](NC(=O)[C@@H]1CCCN1C(=O)[C@H](CCCNC(=N)N)NC(=O)[C@H](CC(N)=O)NC(=O)[C@H](CC(N)=O)NC(=O)CN)C(C)C)C(=O)N1CCC[C@H]1C(=O)N[C@@H](CCC(N)=O)C(=O)N1CCC[C@H]1C(=O)N[C@@H](CCCNC(=N)N)C(=O)N1CCC[C@H]1C(=O)N1CCC[C@H]1C(=O)N[C@@H](Cc1cnc[nH]1)C(=O)N1CCC[C@H]1C(=O)N[C@@H](CCCNC(=N)N)C(=O)N[C@@H](CC(C)C)C(=O)O [bee 6b] (H-GNNRPVYIPQPRPPHPRL-OH),cell division and callus formation,Tobacco leaf protoplasts; after immobilization in low melting agarose,normal cell division and callus formation occured
same,visible effects during incubation,"Tobacco leaf protoplasts; tobacco leaf protoplasts 10^6 cells/ml, 2 days, 10 ng/ml up to 50 μg/ml",no visible effects were observed
